Assay [1] has as its system Septoria tritici. In words: Microtest: activity against leaf blotch on wheat caused by Septoria tritici (Septtr) (M1, M6, M2-3, CM4). The note with it: 405 nm, 7 days after inoculation; for Growth (%) at 0.5 ppm Septtr: relative growth vs active compound-free control (100%), microtiter plate; for relative growth in % of the pathogen: 31 ppm, compound-free control = 100%. The format is cell-based.

The test system of assay [2] is Botrytis cinerea. The assay can be described thus: Microtest: activity against the grey mold Botrytis cinerea in the microtiterplate test (Botrci) (M2, M4, M2-1, CM3). The settings on record: relative growth vs active compound-free control (100%), microtiter plate, 405 nm, 7 days after inoculation. In kind it is cell-based.
For assay [3], the system named is Phytophthora infestans. The format is cell-based. The note with it: relative growth vs active compound-free control (100%), microtiter plate, 405 nm, 7 days after inoculation.
Assay [4] relates to Pyricularia oryzae. In kind it is cell-based. The note with it: relative growth vs active compound-free control (100%), microtiter plate, 405 nm, 7 days after inoculation.
Assay [5] relates to Phakopsora pachyrhizi. In words: Green house: curative control of soy bean rust on soy beans caused by Phakopsora pachyrhizi (Phakpa K2) (G2-3). In kind it is in vivo. The note with it: 125 ppm, sprayed after inoculation (curative), untreated plants 90% infected.
For assay [6], the system named is Botrytis cinerea. In words: Green house: preventative fungicidal control of Botrytis cinerea on leaves of green pepper (Botrci P1) (G2-1). In kind it is in vivo. The note with it: 125 ppm, sprayed the day before inoculation, untreated plants 90% infected. The procedure: Young seedlings of green pepper were grown in pots to the 4 to 5 leaf stage. […] The next day the plants were inoculated with an aqueous biomalt solution containing the spore suspension of Botrytis cinerea.

Assay [7] has as its system Alternaria solani. The assay can be described thus: Green house: preventative fungicidal control of early blight on tomatoes (Alternaria solani) (Alteso P1) (G2, G2-2). The settings on record: 125 ppm, sprayed the day before inoculation; tomato; untreated plants 70% infected.
Experimental: Water was then added to total volume of 100 ml. This stock solution was diluted with the described solvent-emulsifier-water mixture to the given concentration.
Young seedlings of tomato plants were grown in pots. These plants were sprayed to run-off with an aqueous suspension, containing the concentration of active ingredient or mixture mentioned in the table below. The next day, the treated plants were inoculated with an aqueous suspension of Alternaria solani. Then the trial plants were immediately transferred to a humid chamber. After 5 days at 18 to 20° C. and a relative humidity close to 100%, the extent of fungal attack on the leaves was visually assessed as % diseased leaf area.

Turning to `CC(C)(C)C(O)(Cn1cncn1)c1cccc(Oc2ccccc2)c1` (stereo not shown), the “Growth (%) at 0.5 ppm Septtr” value in assay [1] came out at 83%. Also, the “Growth (%) at 31 ppm Botrci” value in assay [2] came to 76%. Moreover, the “Growth (%) at 31 ppm Phytin” value in assay [3] is on record as 80%. For the same compound, the “Growth (%) at 8 ppm Pyrior” value in assay [4] came to 89%.

Turning to `CC(C)(C)C(O)(Cn1cncn1)c1cc(Cl)cc(Oc2ccccc2)c1` (stereo not shown), in assay [4], the “Growth (%) at 8 ppm Pyrior” value worked out at 69%.

Regarding `CC(C)(C)C(O)(Cn1cncn1)c1cccc(Oc2ccc(Cl)cc2)c1` (stereo not shown) [Compound I-24], the “Growth (%) at 0.5 ppm Septtr” value in assay [1] turned out to be 13%. Moreover, the “Growth (%) at 31 ppm Botrci” value in assay [2] amounted to 9%. Also, in assay [3], the “Growth (%) at 31 ppm Phytin” value is reported as 42%. Moreover, in assay [4], the “Growth (%) at 8 ppm Pyrior” value is on record as 0%.

Consider `CC(C)(C)C(O)(Cn1cncn1)c1cc(Cl)cc(-c2ccc(Cl)cc2)c1` (stereo not shown) [Compound I-27], for which the “infection (% diseased leaf area)” value in assay [5] is given as 7%.

For `OC(Cn1cncn1)(c1cccc(-c2ccc(Cl)cc2)c1)C(F)(F)F` (stereo not shown) [Compound I-29], the “relative growth in % of the pathogen” value in assay [1] was determined as 0%. In addition, the results for the “infection (% diseased leaf area)” value in assay [5], in assay [6] and in assay [7] were 0%, 1% and 10%, respectively.

Turning to `C#CCC(O)(Cn1cncn1)c1cccc(-c2ccc(Cl)cc2)c1` (stereo not shown) [Compound I-30], in assay [1], the “relative growth in % of the pathogen” value was 0%. Further, the “infection (% diseased leaf area)” value in assay [5], in assay [6] and in assay [7] was 1% each time.

Take `CC(C)(C)C(O)(Cn1cncn1)c1cc(Cl)cc(Oc2ccc(Cl)cc2)c1` (stereo not shown) [Compound I-31]: the “Growth (%) at 8 ppm Pyrior” value in assay [4] was 0%.
